Assay results: ChEMBL document CHEMBL1201862, “PubChem BioAssay data set” (2004)
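A five-concentration, 48-hour dose response in 96-well plates underlies each endpoint, interpolated linearly between surrounding concentrations. Here, GI50 denotes the concentration required for 50% inhibition of growth.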 Activity calls are given as the source filed them. Cut-off read from the data, not from the text of the source: active = GI50 up to about 1.1 µM and inactive = higher.

Legend:
Experiment in all cases: DTP human tumour cell line panel, 48 h
[1] = test system: A498
[2] = test system: SNB-19
[3] = test system: HT-29
[4] = test system: CAKI-1
[5] = test system: HCC 2998
[6] = test system: NCI/ADR-RES
[7] = test system: ACHN
[8] = test system: Malme-3M
[9] = test system: BT-549
[10] = test system: SF-295
[11] = test system: SK-MEL-2
[12] = test system: M14
[13] = test system: UO-31
[14] = test system: DU-145
[15] = test system: OVCAR-4
[16] = test system: SK-MEL-28
[17] = test system: SW-620
[18] = test system: IGROV-1
[19] = test system: T47D
[20] = test system: UACC-257
[21] = test system: 786-0
[22] = test system: NCI-H460
[23] = test system: OVCAR-8
[24] = test system: EKVX
[25] = test system: MCF7
[26] = test system: UACC-62
[27] = test system: LOX IMVI
[28] = test system: COLO 205
[29] = test system: KM12
[30] = test system: SNB-75
[31] = test system: OVCAR-3
[32] = test system: MDA-MB-435
[33] = test system: HOP-62
[34] = test system: HOP-92
[35] = test system: PC-3
[36] = test system: SF-539
[37] = test system: HL-60
[38] = test system: U-251
[39] = test system: OVCAR-5
[40] = test system: SK-MEL-5
[41] = test system: RXF 393
[42] = test system: CCRF-CEM
[43] = test system: NCI-H226
[44] = test system: SK-OV-3
[45] = test system: HCT-116
[46] = test system: A549
[47] = test system: HCT-15
[48] = test system: TK-10
[49] = test system: Hs-578T
[50] = test system: MDA-MB-231
[51] = test system: NCI-H23
[52] = test system: SF-268
[53] = test system: K562
[54] = test system: SN12C
[55] = test system: MOLT-4
[56] = test system: NCI-H522

With `c1ccc(C2(c3cc4ccccc4[nH]3)OCCO2)nc1` the GI50 [1] was > 100 µM (inactive), the GI50 [2] was > 100 µM (inactive) and the GI50 [3] was > 100 µM (inactive). For the same molecule, the GI50 [4] was > 100 µM (inactive), the GI50 [5] was > 100 µM (inactive) and the GI50 [6] was > 100 µM (inactive). The GI50 [7] was > 100 µM (inactive), the GI50 [8] was > 100 µM (inactive) and the GI50 [9] was > 100 µM (inactive). For the same molecule, the GI50 [10] was > 100 µM (inactive), the GI50 [11] was > 100 µM (inactive) and the GI50 [12] was > 100 µM (inactive). The GI50 [13] was > 100 µM (inactive), the GI50 [14] was > 100 µM (inactive) and the GI50 [15] was > 100 µM (inactive). For the same molecule, the GI50 [16] was > 100 µM (inactive), the GI50 [17] was > 100 µM (inactive) and the GI50 [18] was > 100 µM (inactive). The GI50 [19] was > 100 µM (inactive), the GI50 [20] was > 100 µM (inactive) and the GI50 [21] was > 100 µM (inactive). The GI50 [22] was > 100 µM (inactive), the GI50 [23] was > 100 µM (inactive) and the GI50 [24] was > 100 µM (inactive). The GI50 [25] was > 100 µM (inactive), the GI50 [26] was > 100 µM (inactive) and the GI50 [27] was > 100 µM (inactive). The GI50 [28] was > 100 µM (inactive), the GI50 [29] was > 100 µM (inactive) and the GI50 [30] was > 100 µM (inactive). The GI50 [31] was > 100 µM (inactive), the GI50 [32] was > 100 µM (inactive) and the GI50 [33] was > 100 µM (inactive). For the same molecule, the GI50 [34] was > 100 µM (inactive), the GI50 [35] was > 100 µM (inactive) and the GI50 [36] was > 100 µM (inactive). For the same molecule, the GI50 [37] was > 100 µM (inactive), the GI50 [38] was > 100 µM (inactive) and the GI50 [39] was > 100 µM (inactive). For the same molecule, the GI50 [40] was > 100 µM (inactive), the GI50 [41] was > 100 µM (inactive) and the GI50 [42] was > 100 µM (inactive). The GI50 [43] was > 100 µM (inactive), the GI50 [44] was > 100 µM (inactive) and the GI50 [45] was > 100 µM (inactive). For the same molecule, the GI50 [46] was > 100 µM (inactive), the GI50 [47] was > 100 µM and the GI50 [48] was > 100 µM (inactive). For the same molecule, the GI50 [49] was > 100 µM (inactive), the GI50 [50] was > 100 µM (inactive) and the GI50 [51] was > 100 µM (inactive). For the same molecule, the GI50 [52] was > 100 µM (inactive).

For `CCc1c(-c2ccc(OC)cc2)oc(OC)c(C)c1=O`, the GI50 [1] was 68.9 µM (inactive), the GI50 [2] was > 100 µM (inactive) and the GI50 [3] was 91.4 µM (inactive). For the same molecule, the GI50 [4] was 99.1 µM (inactive), the GI50 [5] was > 100 µM (inactive) and the GI50 [6] was 49 µM (inactive). For the same molecule, the GI50 [7] was 42.3 µM (inactive), the GI50 [9] was 93.8 µM (inactive) and the GI50 [10] was > 100 µM (inactive). The GI50 [11] was > 100 µM (inactive), the GI50 [12] was > 100 µM (inactive) and the GI50 [13] was 64.6 µM (inactive). The GI50 [14] was > 100 µM (inactive), the GI50 [15] was 85.9 µM (inactive) and the GI50 [16] was > 100 µM (inactive). For the same molecule, the GI50 [17] was > 100 µM (inactive), the GI50 [18] was > 100 µM (inactive) and the GI50 [19] was 45 µM (inactive). The GI50 [20] was 65.6 µM (inactive), the GI50 [21] was > 100 µM (inactive) and the GI50 [22] was 40.5 µM (inactive). The GI50 [23] was > 100 µM (inactive), the GI50 [24] was 63.4 µM (inactive) and the GI50 [25] was 79.1 µM (inactive). For the same molecule, the GI50 [26] was 64 µM (inactive), the GI50 [27] was 63.7 µM (inactive) and the GI50 [53] was 34.2 µM (inactive). For the same molecule, the GI50 [54] was > 100 µM (inactive), the GI50 [28] was > 100 µM (inactive) and the GI50 [29] was > 100 µM (inactive). For the same molecule, the GI50 [30] was 33.2 µM (inactive), the GI50 [31] was 62.8 µM (inactive) and the GI50 [32] was > 100 µM (inactive). The GI50 [33] was > 100 µM (inactive), the GI50 [34] was 97.1 µM (inactive) and the GI50 [35] was 57.4 µM (inactive). For the same molecule, the GI50 [36] was > 100 µM (inactive), the GI50 [38] was > 100 µM (inactive) and the GI50 [55] was 31.9 µM (inactive). The GI50 [39] was > 100 µM (inactive), the GI50 [40] was 32.2 µM (inactive) and the GI50 [41] was > 100 µM (inactive). For the same molecule, the GI50 [42] was 41 µM (inactive), the GI50 [44] was > 100 µM (inactive) and the GI50 [45] was 55.1 µM (inactive). The GI50 [46] was 79.1 µM (inactive), the GI50 [47] was > 100 µM and the GI50 [48] was > 100 µM (inactive). The GI50 [56] was 47.4 µM (inactive), the GI50 [49] was > 100 µM (inactive) and the GI50 [50] was 75.7 µM (inactive). The GI50 [51] was > 100 µM (inactive) and the GI50 [52] was > 100 µM (inactive).
